Measured values taken from patent US4898855A, “Deuterated analogs of 1,25-dihydroxycholecalciferol” (Hoffman-La Roche Inc., priority 1987, dated 1990).
Where two headings read alike, the source gives them in different places.

How the values were obtained:
[1] = test system: porcine growth-plate cartilage; assay: Stimulation of porcine cartilage growth in vitro (organ culture of fetal pig scapula growth-plates); assay type: cell-based; conditions: for Porcine cartilage in vitro, % increase, dry weight: 14-17 days incubation
Description: Organ cultures of growth-plates from the scapula cartilages of fetal pigs were performed using methods previously described. (Burch WM, Lebovitz HE (1982) "Triiodothyronine stimulates maturation of porcine growth-plate cartilage in vitro." J. Clin. Investig. (70: 496.) Growth-plates (n=12/treatment group) were isolated aseptically, wet weight obtained, and then placed into individuals wells of 24 well-plastic culture plates. Growth-plates were incubated in 1.5 ml of MEM (Joklik-Modified) containing 0.5% BSA for 14-17 days. The medium was changed and fresh additives introduced every 4-5 days. This medium (MEM) was chosen because it contained antibiotics which allowed relatively long-term culture without contamination. BGJb. (Fitton-Jackson modification) medium with addition of antibiotics has also been used with similar results. At the end of the incubation, growth-plates were weighed for wet weight, then air dried for dry weight. The change in growth-plate wet weights were determined and the cartilages were photographed.

[2] = test system: embryonic chick pelvic cartilage; assay: Stimulation of avian cartilage growth in vitro (organ culture of embryonic chick pelvic cartilage); conditions: for Avian cartilage in vitro, % increase, dry weight: 3-day incubation
Bone Ca resorption (BCR) = assay: Bone calcium mobilization in rat (plasma Ca increase); assay type: in vivo; conditions: 12.5 ng/rat intrajugularly, 18 hours after injection, vitamin D-deficient low calcium diet
Description: Male weanling rats (Holtzman, Madison WI.) were housed individually in overhanging wire cages and were fed a vitamin D-deficient diet containing low calcium (0.005%) and normal phosphorus (0.3%). Test compounds were dissolved in 10-20 μl of ethanol. Plasma (1.8 ml), collected from vitamin D, deficient rats was added to the ethanol solution. The test compounds were given intrajugularly in 0.3 ml of the ethanol-plasma carrier solution. Controls received carrier alone.
Bone Ca resorption (BCR) was estimated by mesuring the blood Ca increase in the treated rats. Blood was collected in heparinized tubes and centrifuged. The resulting plasma was measured for calcium concentration by atomic absorption spectroscopy. Since rats were fed a diet essentially devoid of Ca, plasma Ca increases reflected mobilization of Ca from bone, not intestinal Ca absorption.

[3] = test system: intestinal ^45 Ca transport (ICA); assay: Stimulation of intestinal calcium absorption in rat (everted gut sac); assay type: in vivo; conditions: 12.5 ng/rat intrajugularly, 18 hours after injection, vitamin D-deficient low calcium diet
vitamin D deficient rats = assay type: in vivo, rat; conditions: for Bone Mass: histomorphometric
Description: Rats were placed on the following protocol. […]
Ten 3 week old rats were maintained on vitamin D3 deficient diet for 6 weeks.
The following parameters in Table III were evaluated, by means which are conventional in the art, after completion the above treatments. Bone mass is measured by known histomorphometric methods.

[4] = high dose: daily 60 ng 1,25-(OH)2 D3 or 66 ng Hexa ^2 H, 3 weeks, vitamin D3 deficient diet
[5] = low dose: daily 15 ng 1,25-(OH)2 D3 or 16.5 ng Hexa ^2 H, 3 weeks, vitamin D3 deficient diet

SMILES | Porcine cartilage in vitro, % increase, ^3 H ([1]; 10^-9 M) | Porcine cartilage in vitro, % increase, ^35 S ([1]; 10^-9 M) | Porcine cartilage in vitro, % increase, dry weight ([1]; 10^-9 M) | Porcine cartilage in vitro, % increase, ^3 H ([1]; 10^-10 M) | Porcine cartilage in vitro, % increase, ^35 S ([1]; 10^-10 M) | Porcine cartilage in vitro, % increase, dry weight ([1]; 10^-10 M) | Porcine cartilage in vitro, % increase, ^3 H ([1]; 10^-11 M) | Porcine cartilage in vitro, % increase, ^35 S ([1]; 10^-11 M) | Porcine cartilage in vitro, % increase, dry weight ([1]; 10^-11 M) | Avian cartilage in vitro, % increase, ^35 S ([2]; 10^-9 M) | Avian cartilage in vitro, % increase, dry weight ([2]; 10^-9 M) | Avian cartilage in vitro, % increase, ^3 H thymidine ([2]; 10^-10 M) | Avian cartilage in vitro, % increase, dry weight ([2]; 10^-10 M) | Avian cartilage in vitro, % increase, dry weight ([2]; 10^-11 M) | Avian cartilage in vitro, % increase, ^3 H thymidine ([2]; 10^-12 M) | Avian cartilage in vitro, % increase, dry weight ([2]; 10^-12 M) | % of 1,25-(OH)2 D3 effect in rat, bone calcium mobilization (Bone Ca resorption (BCR)) | % of 1,25-(OH)2 D3 effect in rat, intestinal calcium absorption [3] | Body Weight (vitamin D deficient rats; [4]) | Serum Creatinine (vitamin D deficient rats; [4]) | further results
[2H]C([2H])([2H])C(O)(C([2H])([2H])[2H])C([2H])([2H])CC[C@@H](C)[C@H]1CC[C@H]2/C(=C/C=C3/C[C@@H](O)C[C@H](O)C3=C)CCC[C@]12C [1,25-(OH)2 D3 -Octa^2 H, 24,24,26,26,26,27,27,27-octadeutero-1α,25-dihydroxycholecalciferol] | 150% | 490% | 60% | 75% | 410% | 50% | 20% | 95% | 42% | 10.8% | 28.0% | 25.0% | 21.6% | 17.0% | 15.3% | 10.3% | 147% |  |  |  | Avian cartilage in vitro, % increase, ^3 H thymidine ([2]; 10^-11 M): 20.7%
C=C1/C(=C\C=C2/CCC[C@]3(C)[C@@H]([C@H](C)CCCC(C)(C)O)CC[C@@H]23)C[C@@H](O)C[C@@H]1O [1,25-(OH)2 D3, 1α,25-dihydroxycholecalciferol, reference compound] | 300% | 280% | 49% | 0% | 0% | 0% | 0% | 0% | 0% |  | 31.8% |  | 27.2% | 24.1% |  | 22.6% | 100% | 100% | 156 ± 15 gr | 0.35 ± 0.02 mg/dL | Bone Mass (vitamin D deficient rats; [4]): 296 ± 56 ^mm.spsp.3 /cm^3; Body Weight (vitamin D deficient rats; [5]): 192 ± 4.5 gr; Serum Ca^2+ (vitamin D deficient rats; [5]): 11.87 ± 0.16 mg/dL; Serum Creatinine (vitamin D deficient rats; [5]): 0.37 ± 0.04 mg/dL; Bone Mass (vitamin D deficient rats; [5]): 156 ± 16 ^mm.spsp.3 /cm^3; Serum Ca^2+ (vitamin D deficient rats; rat, in vivo): 11.92 ± 0.40 mg/dL; Avian cartilage in vitro, % increase, ^3 H proline ([2]; 10^-10 M): 122%; Avian cartilage in vitro, % increase, ^35 S ([2]; 10^-10 M): 21.8%; Avian cartilage in vitro, % increase, ^3 H proline ([2]; 10^-11 M): 68.3%; Avian cartilage in vitro, % increase, ^35 S ([2]; 10^-11 M): 13.8%; Avian cartilage in vitro, % increase, ^3 H proline ([2]; 10^-12 M): 46.3%; Avian cartilage in vitro, % increase, ^35 S ([2]; 10^-12 M): 8.6%
[2H]C([2H])([2H])C(O)(CCC[C@@H](C)[C@H]1CC[C@H]2/C(=C/C=C3/C[C@@H](O)C[C@H](O)C3=C)CCC[C@]12C)C([2H])([2H])[2H] [1,25-(OH)2 D3 -Hexa^2 H, 26,26,26,27,27,27-hexadeutero-1α,25-dihydroxycholecalciferol] |  |  |  | 215.7% | 466.0% | 57.6% | 123.6% | 203.2% | 40.9% | 41.0% | 35.3% | 44.3% | 29.1% | 29.8% | 62.5% | 31.2% | 64% | 92% | 163 ± 7.2 gr | 0.36 ± 0.04 mg/dL | Porcine cartilage in vitro, % increase, dry weight ([1]; 10^-12 M): 31.5%; Porcine cartilage in vitro, % increase, dry weight ([1]; 10^-13 M): 29.5%; Serum Ca^2+ (vitamin D deficient rats; [4]): 11.20 ± 0.28 mg/dL; Bone Mass (vitamin D deficient rats; [4]): 371 ± 68 ^mm.spsp.3 /cm^3; Body Weight (vitamin D deficient rats; [5]): 193 ± 5 gr; Serum Ca^2+ (vitamin D deficient rats; [5]): 11.28 ± 0.26 mg/dL; Serum Creatinine (vitamin D deficient rats; [5]): 0.36 ± 0.02 mg/dL; Bone Mass (vitamin D deficient rats; [5]): 288 ± 58 ^mm.spsp.3 /cm^3; activity in increasing bone mass compared with 1,25-(OH)2 D3 (vitamin D deficient rats; summary of Table III): more active than 1,25-(OH)2 D3; activity in inducing hypercalcemia compared with 1,25-(OH)2 D3 (serum Ca^2+) (vitamin D deficient rats; summary of Table III): not as active as 1,25-(OH)2 D3; Avian cartilage in vitro, % increase, ^3 H proline ([2]; 10^-9 M): 148.3%; Avian cartilage in vitro, % increase, ^3 H proline ([2]; 10^-10 M): 145.4%; Avian cartilage in vitro, % increase, ^35 S ([2]; 10^-10 M): 30.1%; Avian cartilage in vitro, % increase, ^3 H proline ([2]; 10^-11 M): 131.4%; Avian cartilage in vitro, % increase, ^35 S ([2]; 10^-11 M): 26.3%; Avian cartilage in vitro, % increase, ^3 H proline ([2]; 10^-12 M): 65.0%; Avian cartilage in vitro, % increase, ^3 H proline ([2]; 10^-13 M): 36.0%; Avian cartilage in vitro, % increase, ^3 H thymidine ([2]; 10^-13 M): 57.9%; Avian cartilage in vitro, % increase, ^35 S ([2]; 10^-13 M): 21.5%; Avian cartilage in vitro, % increase, dry weight ([2]; 10^-13 M): 20.5%
